In patent publication US20150004262A1, “ANESTHETIC AND THERAPEUTIC COMPOSITION FOR USE IN AQUACULTURE” (priority 2012, published 2015):

Key:
[1] = Experiment 8: oil residues in fish fillet tissue, sobaity; design: species or system Sparidentex hasta; conditions: in vivo
Excerpt: (§1) Thyme oil consists mainly of thymol. On the other hand, oregano oil consists mainly of carvacrol (40-70%) and thymol, while cinnamon oil consists mainly of (65 to 75% of the oil) is cinnamaldehyde.

[2] = Experiment 8: oil residues in fish fillet tissue, sheam; design: species or system Acanthopagrus latus; conditions: in vivo
Excerpt: as §1

serum MDA (TBARS) [3] = experiment: Serum TBARS assay, sheam; type: in vivo, Acanthopagrus latus
Excerpt: (§2) C. Thiobarbituric Acid Reactive Substances (TRARS) Assay.

serum MDA (TBARS) [4] = experiment: Serum TBARS assay, sobaity; type: in vivo, Sparidentex hasta
Excerpt: as §2

## cinnamon oil (Cinnamomum zeylanicum)
[1]
  residue in fillet tissue: 0.52 ppm/fish
[2]
  residue in fillet tissue: 0.17 ppm/fish

## Cc1ccc2ccccc2n1 [Quinaldene, quinaldine]
Serum MDA (TBARS) [3]
  MDA: 0.0410 ± 0.002 nmol/mL
  Relative Activity (RA) in comparison to control serum: 89.13
Serum MDA (TBARS) [4]
  MDA: 0.0365 ± 0.003 nmol/mL
  Relative Activity (RA) in comparison to control serum: 79.27
